From article PMC5515969, “Effects of 31 FDA approved small-molecule kinase inhibitors on isolated rat liver mitochondria” (Archives of Toxicology, 2016)
Like-named read-outs stand apart in the source and are kept apart here.

Legend:
[1] = ref product labeling, cited from earlier work; for Labeling for cardiotoxicity: BBW: black box warning, W&P: Warnings and Precautions
[2] = cited from earlier work
RCC I–V = test: Activities of RCC I–V, overall statements; format: biochemical, rat; conditions: submitochondrial particles; for RCCs inhibited: up to 100-fold Cmax or highest testable concentration
Procedure: KIs were incubated with submitochondrial particles (1 mg/ml) for 15 min and then RCC I–V activities measured. […] The activities of DMSO-treated samples (controls) were set as 1. […] The difference between the activity from rotenone-containing buffer and rotenone-absent buffer was considered as RCC I activity. […] For measuring RCC I/V and II activity, the changes in absorbance at 340 and 600 nm, respectively, were determined every 1 min for 6 min. For measuring RCC III and RCC IV, the changes in absorbance at 550 nm were measured every 10 s for 2 min.

[3] = system: isolated rat liver mitochondria; conditions: for Cytochrome c release 1XCmax / Cytochrome c release 2.5XCmax / Cytochrome c release 5XCmax / Cytochrome c release 10XCmax / Cytochrome c release 20XCmax / Cytochrome c release 30XCmax / Cytochrome c release 50XCmax / Cytochrome c release 100XCmax: positive control alamethicin treated samples
[4] = system: isolated rat liver mitochondria; test: Mitochondrial toxicity, any endpoint, intact mitochondria and submitochondrial particles; format: biochemical; conditions: for lowest concentration causing significant mitochondrial toxicity: any endpoint; for mitochondrial injury: concentrations equal to 100-fold Cmax
Method in brief: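 Rat liver mitochondria isolated by differential centrifugation in sucrose/Tris-MOPS/EGTA buffer pH 7.4, adjusted to 1 mg/ml protein before treatment. Kinase inhibitors added at 1:1000 dilution of stock; final DMSO 0.1%, with 0.1% DMSO controls.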

[5] = Solubility of DMSO stock for 100X/50X Cmax testing; format: physicochemical; conditions: precipitation of DMSO stock
Source text: (§1) Supplement 204_2016_1918_MOESM3_ESM.xlsx, sheet "Sheet1" | column: 100 Cmax; 50 Cmax; note

[6] = design: method as in product labeling; conditions: ref product labeling, cited from earlier work
[7] = Solubility of drug in DMSO stock / reaction buffer at multiples of Cmax; format: physicochemical
Source text: as §1

[8] = human therapeutic Cmax at FDA recommended dosages, ref product labeling and drug approval packages at the official FDA website
[9] = human therapeutic maximal blood concentration, ref product labeling
[10] = read-out: Cmax at µM, human therapeutic maximal blood concentration, ref product labeling

## Cc1cc(Nc2ncc(Cl)c(Nc3ccccc3S(=O)(=O)C(C)C)n2)c(OC(C)C)cc1C1CCNCC1 [Ceritinib]
[1]
  Labeling for cardiotoxicity: W&P:QT Interval Prolongation; Bradycardia
  Potential for cardiotoxicity (based on labeling): 1
[2]; [8]
  Cmax: 1.81 µM
[2]; [9]
  Cmax (ng or µg/ml): 1.01 µg/mL
[2]; [10]
  Cmax: 1.81 µM
RCC I–V
  RCCs inhibited: all five RCCs
[3]
  Cytochrome c release 1XCmax: 0
  Cytochrome c release 2.5XCmax: 0
  Cytochrome c release 5XCmax: 0
  Cytochrome c release 10XCmax: 0
  Cytochrome c release 20XCmax: 0
  Cytochrome c release 30XCmax: 0
  Cytochrome c release 50XCmax: 11.93±0.58 percentage of the positive control group
  Cytochrome c release 100XCmax: 32.92±4.32 percentage of the positive control group
[3]; 100-fold Cmax, alamethicin = 100
  total cytochrome c leaked after treatment: 33%
[3]; rat, 30 min, pH 7.4
  lowest concentration causing cytochrome c release: 50 fold Cmax

## CC(C)(C)c1nc(-c2cccc(NS(=O)(=O)c3c(F)cccc3F)c2F)c(-c2ccnc(N)n2)s1 [Dabrafenib]
[1]
  Labeling for cardiotoxicity: W&P: Cardiomyopathy
  Potential for cardiotoxicity (based on labeling): 1
[2]; [8]
  Cmax: 2.84 µM
[2]; [9]
  Cmax (ng or µg/ml): 1,478 ng/ml
[2]; [10]
  Cmax: 2.84 µM
[4]
  lowest concentration causing significant mitochondrial toxicity: 5 fold Cmax
RCC I–V
  RCCs inhibited: no effects on RCC activities
[3]
  Cytochrome c release 1XCmax: 0
  Cytochrome c release 2.5XCmax: 0
  Cytochrome c release 5XCmax: 19.44±2.10 percentage of the positive control group
  Cytochrome c release 10XCmax: 15.99±0.85 percentage of the positive control group
  Cytochrome c release 20XCmax: 17.52±7.37 percentage of the positive control group
  Cytochrome c release 30XCmax: 17.54±2.16 percentage of the positive control group
  Cytochrome c release 50XCmax: 21.81±7.02 percentage of the positive control group
  Cytochrome c release 100XCmax: 15.21±0.35 percentage of the positive control group

## CC[C@H](Nc1ncnc2[nH]cnc12)c1nc2cccc(F)c2c(=O)n1-c1ccccc1 [Idelalisib]
[1]
  Potential for cardiotoxicity (based on labeling): 0
[2]; [8]
  Cmax: 4.64 µM
[2]; [9]
  Cmax (ng or µg/ml): 1.927 µg/mL
[2]; [10]
  Cmax: 4.64 µM
[4]
  mitochondrial injury: mitochondrial injury was induced
[5]
  note (DMSO stock): 464 mM will precipitate
[3]
  Cytochrome c release 1XCmax: 0
  Cytochrome c release 2.5XCmax: 0
  Cytochrome c release 5XCmax: 0
  Cytochrome c release 10XCmax: 0
  Cytochrome c release 20XCmax: 0
  Cytochrome c release 30XCmax: 0
  Cytochrome c release 50XCmax: 0
  Cytochrome c release 100XCmax: 0

## CNC(=O)c1cc(Oc2ccc(NC(=O)Nc3ccc(Cl)c(C(F)(F)F)c3)c(F)c2)ccn1 [Regorafenib]
[2]; [8]
  Cmax: 8.08 µM
[2]; therapeutic maximal blood concentration, ref product labeling
  Cmax: 3900 ng/mL
[4]
  lowest concentration causing significant mitochondrial toxicity: equal to the Cmax
  mitochondrial injury: mitochondrial injury was induced
[6]; BBW: black box warning, W&P: Warnings and Precautions
  Labeling for cardiotoxicity: W&P: Cardiac Ischemia and Infarction
[6]
  Potential for cardiotoxicity (based on labeling): 1
[7]
  note (solubility): 808 mM will precipitate
RCC I–V
  lowest concentration inhibiting RCCs: 10 fold Cmax
  RCCs inhibited: RCC II
[3]
  Cytochrome c release 1XCmax: 10.72±1.87 percentage of the positive control group
  Cytochrome c release 2.5XCmax: 22.56±1.84 percentage of the positive control group
  Cytochrome c release 5XCmax: 10.26±0.36 percentage of the positive control group
  Cytochrome c release 10XCmax: 7.42±0.36 percentage of the positive control group

## CC(=O)Nc1cccc(-n2c(=O)n(C3CC3)c(=O)c3c(Nc4ccc(I)cc4F)n(C)c(=O)c(C)c32)c1 [Trametinib]
[1]
  Labeling for cardiotoxicity: W&P: Cardiomyopathy
  Potential for cardiotoxicity (based on labeling): 1
[2]; [10]
  Cmax: 0.04 µM
[3]
  Cytochrome c release 1XCmax: 0
  Cytochrome c release 2.5XCmax: 0
  Cytochrome c release 5XCmax: 0
  Cytochrome c release 10XCmax: 0
  Cytochrome c release 20XCmax: 0
  Cytochrome c release 30XCmax: 0
  Cytochrome c release 50XCmax: 0
  Cytochrome c release 100XCmax: 0

## CN(C)C/C=C/C(=O)Nc1cc2c(Nc3ccc(F)c(Cl)c3)ncnc2cc1O[C@H]1CCOC1 [afatinib dimaleate]
[1]
  Potential for cardiotoxicity (based on labeling): 0
[2]; [9]
  Cmax (ng or µg/ml): 0.0252 µg/mL
[2]; [10]
  Cmax: 0.04 µM
[3]
  Cytochrome c release 1XCmax: 0
  Cytochrome c release 2.5XCmax: 0
  Cytochrome c release 5XCmax: 0
  Cytochrome c release 10XCmax: 0
  Cytochrome c release 20XCmax: 0
  Cytochrome c release 30XCmax: 0
  Cytochrome c release 50XCmax: 0
  Cytochrome c release 100XCmax: 0

## CC(=O)c1c(C)c2cnc(Nc3ccc(N4CCNCC4)cn3)nc2n(C2CCCC2)c1=O.Cl [palbociclib hydrochloride]
[1]
  Potential for cardiotoxicity (based on labeling): 0
[2]; [9]
  Cmax (ng or µg/ml): 0.116 µg/mL
[2]; [10]
  Cmax: 0.24 µM
[5]
  note (DMSO stock): 100X will precipitate
[3]
  Cytochrome c release 1XCmax: 0
  Cytochrome c release 2.5XCmax: 0
  Cytochrome c release 5XCmax: 0
  Cytochrome c release 10XCmax: 0
  Cytochrome c release 20XCmax: 0
  Cytochrome c release 30XCmax: 0
  Cytochrome c release 50XCmax: 0
  Cytochrome c release 100XCmax: 0
